Test results taken from patent publication US7753966B2, “Hair dye stabilizer” (Takasago International Corporation, priority 2006, dated 2010).

Experiments:
[1] = Color tone of liquid hair dye base first preparation after storage, visually observed by three panelists; format: physicochemical; details: for Color tone: room temperature; for concentration at which a stabilization effect was shown: stored at room temperature for 2 weeks, judged from full-color photographs
Experimental: 40 g of a liquid hair dye base first preparation obtained by adding thioglycerol to a liquid hair dye base (Bigen Speedy Color, manufactured by Hoyu Co. Ltd.) in an amount adjusted as shown in Table 2 was placed in a 100 ml shampoo bottle and, after purging with nitrogen gas was performed, the bottle was capped and stored at room temperature.
Immediately after the passage of a given period of storage time of the shampoo bottle in which the above liquid hair dye base first preparation was placed, the color tone of the liquid hair dye base first preparation was visually observed by three panelists. The color tones in the table show the color tones of the results observed by the largest number of the panelists (the same shall apply hereinafter). Moreover, photographs of change in color tone of the hair dye base first preparation immediately after the passage of the above given period are shown in FIG. 1 to FIG. 3. […]

[2] = Stability test: remaining dye in liquid hair dye base first preparation by HPLC; format: physicochemical; details: finding stated in text
Experimental: 50 g of a liquid hair dye base (Bigen Speedy Color, manufactured by Hoyu Co. Ltd.) was weighed into a separable flask, and 0.1 g of thioglycerol was added. After the above separable flask was purged with nitrogen gas, the whole was stirred under a flow of nitrogen gas. After the resultant was divided into 40 g each in a 100 ml shampoo bottle and purging with nitrogen gas was performed, the bottle was capped, thereby a liquid hair dye base first preparation being prepared.
The liquid hair dye base first preparation of Example 1 was stored in a constant-temperature tank set at room temperature or 40° C. for 30 days. This first preparation was used as a sample.
About 4 g of an acetonitrile solution containing 500 ppm of benzonitrile was placed in a 10 mL sample vial and then the amount was accurately measured. About 0.2 g of the above sample was added thereto and the amount was accurately measured, followed by thorough mixing. The liquid in the sample vial was sucked by means of a syringe and was placed in a vial under filtration. Then, it was analyzed by means of a column ODS-80A in high performance liquid chromatography (HP 1100 manufactured by Hewlett-Packard Company) to measure amounts of remaining dyes in the sample.
A liquid hair dye base first preparation was prepared by performing the same operations as in Example 1 except that thioglycolic acid was used instead of thioglycerol. […]

[3] = 0.1 ppm (0.00001 %) added, 1 Day
[4] = 0.1 ppm (0.00001 %) added, 2 Weeks
[5] = 0.1 ppm (0.00001 %) added, 4 Days
[6] = 1 ppm (0.0001 %) added, 2 Weeks
[7] = 10 ppm (0.001 %) added, 2 Weeks
[8] = 100 ppm (0.01 %) added, 2 Weeks
[9] = 1000 ppm (0.1 %) added, 2 Weeks

Structure (SMILES)	Color tone ([1]; 0.0001 ppm added, 1 Day)	Color tone ([1]; 0.0001 ppm added, 2 Weeks)	Color tone ([1]; 0.0001 ppm added, 4 Days)	Color tone ([1]; 0.001 ppm added, 1 Day)	Color tone ([1]; 0.001 ppm added, 2 Weeks)	Color tone ([1]; 0.001 ppm added, 4 Days)	Color tone ([1]; 0.01 ppm added, 1 Day)	Color tone ([1]; 0.01 ppm added, 2 Weeks)	Color tone ([1]; 0.01 ppm added, 4 Days)	Color tone [1, 3]	Color tone [1, 4]	Color tone [1, 5]	Color tone ([1]; 1 ppm (0.0001 %) added, 1 Day)	Color tone [1, 6]	Color tone ([1]; 1 ppm (0.0001 %) added, 4 Days)	Color tone ([1]; 10 ppm (0.001 %) added, 1 Day)	Color tone [1, 7]	Color tone ([1]; 10 ppm (0.001 %) added, 4 Days)	Color tone ([1]; 100 ppm (0.01 %) added, 1 Day)	Color tone [1, 8]	also measured
CC(C)=CCC/C(C)=C/CS [thiogeraniol, (E)-3,7-dimethyl-2,6-octadien-1-thiol]	black	brown	black	black	brown	black	black	brown	black	black	brown	black	black	brown	black	black	brown	black	black	brown	Color tone ([1]; 100 ppm (0.01 %) added, 4 Days): black; Color tone ([1]; 1000 ppm (0.1 %) added, 1 Day): brown; Color tone [1, 9]: brown; Color tone ([1]; 1000 ppm (0.1 %) added, 4 Days): black; Color tone ([1]; 10000 ppm (1 %) added, 1 Day): orange; Color tone ([1]; 10000 ppm (1 %) added, 2 Weeks): orange; Color tone ([1]; 10000 ppm (1 %) added, 4 Days): orange; concentration at which a stabilization effect was shown [1]: ≤ 0.0001 ppm
OCCS [thioglycol, 2-mercaptoethanol]	black	brown	black	black	brown	black	black	brown	black	black	brown	black	black	brown	black	black	brown	black	black	brown	Color tone ([1]; 100 ppm (0.01 %) added, 4 Days): black; Color tone ([1]; 1000 ppm (0.1 %) added, 1 Day): brown; Color tone [1, 9]: orange; Color tone ([1]; 1000 ppm (0.1 %) added, 4 Days): orange; Color tone ([1]; 10000 ppm (1 %) added, 1 Day): orange; Color tone ([1]; 10000 ppm (1 %) added, 2 Weeks): orange; Color tone ([1]; 10000 ppm (1 %) added, 4 Days): orange; concentration at which a stabilization effect was shown [1]: ≤ 0.0001 ppm
O=C(O)CS [thioglycolic acid]	–	–	–	–	–	–	–	–	–	–	–	–	–	–	–	–	–	–	–	–	effect on stability of p-nitro-o-phenylenediamine [2]: promotes the deterioration; effect on stability of resorcin [2]: promotes the deterioration
